Experimental findings from patent publication US4777269A, “7-Phenylacetic acid-4-alkyl-coumarinyl amides useful in fluorometric determination of the activity of hydrolases” (European Atomic Energy Community, priority 1986, dated 1988) are described below.

The target of one data set is penicillin G-acylase (Escherichia coli, UniProt P06875). The experiment in a line: Kinetic study of enzymatic cleavage of the coumarinyl amides (Lineweafer-Burg-plot), fluorometric test. The data set is classed as biochemical. Particulars: enzyme concentration constant, substrate concentration varied, 50 mM K-P-buffer, 5% ethanol. Here is the method:
During the tests it has been observed repeatedly that the conversion rate of the reaction decreases at higher substrate concentrations. Therefore, research work for the determination of the kinetic parameters (Vmax and KM) of this reaction system had to be carried out.
The enzyme concentration in the test was kept constant and the substrate concentration (50 mM K-P-buffer 5% ethanol for both substrates) was varied.
The test mixture contains 3 μg/ml of the coumarinyl derivative as obtained in example 1, dissolved in 50 mM of a potassium-phosphate-buffer (pH 8, 5% ethanol).
At first a solution of the coumarinyl derivative in ethanol is prepared and diluted with the phosphate buffer according to the concentration values. 3 ml of the mixture are measured in a fluorescence cuvette in a spectral fluorometer (λ=440 nm for PMC; λ=495 nm for PFC) in regard to the background signal.
The reaction is started (while stirring) by the addition of 10 to 100 μl of the sample and followed. The activity of the enzyme can be estimated from the linear initial increase of the fluorescence/time-diagram after a corresponding calibration has been made.

The nature of data set [1]: Solubility of the substrates in aqueous solution / buffer. The format is physicochemical. On the procedure:
The values for the PFC test are easily reproduceable since the solution of the substrate (5% ethanol) can be prepared more accurately. For the preparation of solutions of the substrate without ethanol about 24 hours are need to dissolve 1 mg of the substrate in 1 l of the buffer. The fluorometric test is particularly suited for the determination of low activities of penicillin G-acylase.
The yields obtained in the preparation of the 7-phenylacetic acid-4-alkyl-coumarinyl amides of the invention, in particular of PFC and PMC, were in the range of from 50 to 80% at a high product purity (NMR, IR). […] However, this problem may be overcome by dissolving the substrate at first in pure ethanol and then diluting it with the corresponding buffer to a mixture with 5% ethanol. In this manner concentrations of 6 mg/l can be achieved.

Setting [2] is: aqueous solution, aqueous solutions, without ethanol, read-out: solubility in aqueous solutions.
The mark [3] stands for this setting: buffer with 5% ethanol, organic solvent or mixture, buffer mixture with 5% ethanol, read-out: achievable concentration after dissolving in pure ethanol and diluting with buffer.

In brackets after ≈: the same amount, converted by molar mass. Where two headings read alike, the source gives them in different places. Where only a bound is given, the exact number is not on record here.

Chain of penicillin G-acylase (P06875 290-846): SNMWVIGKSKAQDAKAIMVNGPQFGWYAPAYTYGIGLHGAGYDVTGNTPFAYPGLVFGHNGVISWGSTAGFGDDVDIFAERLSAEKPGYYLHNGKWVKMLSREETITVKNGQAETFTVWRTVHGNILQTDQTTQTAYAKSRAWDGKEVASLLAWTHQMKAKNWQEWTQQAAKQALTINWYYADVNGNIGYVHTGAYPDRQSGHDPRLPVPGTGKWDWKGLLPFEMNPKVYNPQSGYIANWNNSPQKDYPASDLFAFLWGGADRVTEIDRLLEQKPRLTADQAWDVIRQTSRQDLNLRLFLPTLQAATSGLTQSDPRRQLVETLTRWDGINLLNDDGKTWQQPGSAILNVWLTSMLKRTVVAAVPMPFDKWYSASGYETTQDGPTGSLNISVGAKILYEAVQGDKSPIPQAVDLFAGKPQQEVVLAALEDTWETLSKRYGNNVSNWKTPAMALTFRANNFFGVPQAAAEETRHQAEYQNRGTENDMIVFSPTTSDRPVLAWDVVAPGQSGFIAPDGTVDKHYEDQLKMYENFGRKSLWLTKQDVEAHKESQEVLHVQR
Chain of penicillin G-acylase (P06875 27-235): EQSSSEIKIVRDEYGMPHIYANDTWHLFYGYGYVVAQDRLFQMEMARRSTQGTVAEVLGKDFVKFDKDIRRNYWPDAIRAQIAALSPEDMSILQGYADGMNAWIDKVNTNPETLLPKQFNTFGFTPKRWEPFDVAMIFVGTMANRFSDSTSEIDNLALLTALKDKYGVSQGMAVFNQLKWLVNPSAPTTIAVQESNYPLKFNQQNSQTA

In the case of `O=C(Cc1ccccc1)Nc1ccc2c(C(F)(F)F)cc(=O)oc2c1` [PFC, 7-phenyl-acetic acid-4-trifluoromethyl-coumarinyl amide], the “kinetic behaviour at higher substrate concentrations” value at penicillin G-acylase was “substrate inhibition”. In addition, the solubility was under 1 µg/mL in data set [1] (setting [2]) and 6 µg/mL (≈ 17.3 µM) in data set [1] (setting [3]).

As for `Cc1cc(=O)oc2cc(NC(=O)Cc3ccccc3)ccc12` [PMC, 7-phenylacetic acid-4-methylcoumarinyl amide], the “kinetic behaviour at higher substrate concentrations” value at penicillin G-acylase is listed as “substrate inhibition”. Moreover, the solubility was under 1 µg/mL in data set [1] (setting [2]) and 6 µg/mL (≈ 20.5 µM) in data set [1] (setting [3]).
